# According to patent US7041698B2, “Hepatitis C virus inhibitors” (Bristol-Myers Squibb Company, priority 2002, dated 2006):
# Target: T1, HCV NS3/4A protease complex (UniProt P27958, C1454S/C1711G, species not given)
# T1 construct: fused on or other part: Three-lysine solubilising tail at the C-terminus of NS4A
# Assay: Recombinant HCV NS3/4A protease complex FRET peptide assay (strain not stated)
# Assay type: biochemical
# Settings: HCV NS3/4A protease enzyme assay, read-out: IC50 range
# Description: Recombinant HCV NS3/4A Protease Complex FRET Peptide Assay
# The purpose of this in vitro assay was to measure the inhibition of HCV NS3 protease complexes, derived from the BMS, H77C or J416S strains, as described below, by compounds of the present invention. This assay provides an indication of how effective compounds of the present invention would be in inhibiting HCV proteolytic activity.
# Serum from an HCV-infected patient was obtained from Dr. T. Wright, San Francisco Hospital. An engineered full-length cDNA (compliment deoxyribonucleic acid) template of the HCV genome (BMS strain) was constructed from DNA fragments obtained by reverse transcription-PCR (RT-PCR) of serum RNA (ribonucleic acid) and using primers selected on the basis of homology between other genotype 1a strains. From the determination of the entire genome sequence, a genotype 1a was assigned to the HCV isolate according to the classification of Simmonds et al. (See P Simmonds, K A Rose, S Graham, S W Chan, F McOmish, B C Dow, E A Follett, P L Yap and H Marsden, J. Clin. Microbiol., 31(6), 1493–1503 (1993)). […] The infectious clones, H77C (1a genotype) and J4L6S (1b genotype) were obtained from R. Purcell (NIH) and the sequences are published in Genbank (AAB67036, see Yanagi, M., Purcell, R. H., Emerson, S. U. and Bukh, J. Proc. Natl. Acad. Sci. U.S.A. 94(16),8738–8743 (1997); AF054247, see Yanagi, M., St Claire, M., Shapiro, M., Emerson, S. U., Purcell, R. H. and Bukh, J, Virology 244 (1), 161–172. (1998)).
# The BMS, H77C and J4L6S strains were used for production of recombinant NS3/4A protease complexes. DNA encoding the recombinant HCV NS3/4A protease complex (amino acids 1027 to 1711) for these strains were manipulated as described by P. Gallinari et al. (see Gallinari P, Paolini C, Brennan D, Nardi C, Steinkuhler C, De Francesco R. Biochemistry. 38(17):5620–32, (1999)). Briefly, a three-lysine solubilizing tail was added at the 3′-end of the NS4A coding region. The cysteine in the P1 position of the NS4A-NS4B cleavage site (amino acid 1711) was changed to a glycine to avoid the proteolytic cleavage of the lysine tag. Furthermore, a cysteine to serine mutation was introduced by PCR at amino acid position 1454 to prevent the autolytic cleavage in the NS3 helicase domain. The variant DNA fragment was cloned in the pET21b bacterial expression vector (Novagen) and the NS3/4A complex was expressed in Escherichia. coli strain BL21 (DE3) (Invitrogen) following the protocol described by P. Gallinari et al. (see Gallinari P, Brennan D, Nardi C, Brunetti M, Tomei L, Steinkuhler C, De Francesco R., J. Virol. 72(8):6758–69 (1998)) with modifications. Briefly, NS3/4A expression was induced with 0.5 mM Isopropyl β-D-1-thiogalactopyranoside (IPTG) for 22 hr at 20° C. A typical fermentation (10L) yielded approximately 80 g of wet cell paste. The cells were resuspended in lysis buffer (10 mL/g) consisting of 25 mM N-(2-Hydroxyethyl)Piperazine-N′-(2-Ethane Sulfonic acid) (HEPES), pH7.5, 20% glycerol, 500 mM Sodium Chloride (NaCl), 0.5% Triton-X100, 1 ug/ml lysozyme, 5 mM Magnesium Chloride (MgCl2), lug/ml Dnasel, 5 mM β-Mercaptoethanol (βME), Protease inhibitor—Ethylenediamine Tetraacetic acid (EDTA) free (Roche), homogenized and incubated for 20 mins at 4° C. The homogenate was sonicated and clarified by ultra-centrifugation at 235000 g for 1 hr at 4° C. Imidazole was added to the supernatant to a final concentration of 15 mM and the pH adjusted to 8.0. The crude protein extract was loaded on a Nickel-Nitrilotriacetic acid (Ni-NTA) column pre-equilibrated with buffer B (25 mM HEPES, pH 8.0, 20% glycerol, 500 mM NaCl, 0.5% Triton-X100, 15 mM imidazole, 5 mM βME). The sample was loaded at a flow rate of 1 mL/min. The column was washed with 15 column volumes of buffer C (same as buffer B except with 0.2% Triton-X100). The protein was eluted with 5 column volumes of buffer D (same as buffer C except with 200 mM Imidazole). […]
row,SMILES,IC50 [µM]
1,"C=CC1CC1(NC(=O)[C@@H]1C[C@@H](OC(=O)N[C@H](C(=O)OC)[C@@H](C)CC)CN1C(=O)[C@@H](NC(=O)OC(C)(C)C)C(C)(C)C)C(=O)O (stereo partly drawn) [Compound 104, BocNH-P3(t-BuGly)-P2(Hyp(O—CO(NH-2-[(2S,3S)-3-methylvaleric acid methyl ester])))-P1((1R,2S)/(1S,2R) VinylAcca)—CO2H]",1 to 10
2,"C=CC1CC1(NC(=O)[C@@H]1C[C@@H](OC(=O)Nc2c(F)cccc2F)CN1C(=O)[C@@H](NC(=O)OC(C)(C)C)C(C)(C)C)C(=O)O (stereo partly drawn) [Compound 102, BocNH-P3(t-BuGly)-P2(Hyp(O—CO(NH—(2,6-difluoro-phenyl))))-P1((1R,2S)/(1S,2R) VinylAcca)—CO2H]",> 10
3,"C=CC1CC1(NC(=O)[C@@H]1C[C@@H](OC(=O)Nc2cccc(C(F)(F)F)c2)CN1C(=O)[C@@H](NC(=O)OC(C)(C)C)C(C)(C)C)C(=O)O (stereo partly drawn) [Compound 109, BocNH-P3(t-BuGly)-P2(Hyp(O—CO(NH—(3-trifluoromethyl-phenyl))))-P1((1R,2S)/(1S,2R) VinylAcca)—CO2H]",> 10
4,"C=CC1CC1(NC(=O)[C@@H]1C[C@@H](OC(=O)NCCc2cccs2)CN1C(=O)[C@@H](NC(=O)OC(C)(C)C)C(C)(C)C)C(=O)O (stereo partly drawn) [Compound 108, BocNH-P3(t-BuGly)-P2(Hyp(O—CO(NH—(2-thiophen-2-yl-ethyl))))-P1((1R,2S)/(1S,2R) VinylAcca)—CO2H]",> 10
5,"C=CC1CC1(NC(=O)[C@@H]1C[C@@H](OC(=O)NCc2ccccc2C)CN1C(=O)[C@@H](NC(=O)OC(C)(C)C)C(C)(C)C)C(=O)O (stereo partly drawn) [Compound 103, BocNH-P3(t-BuGly)-P2(Hyp(O—CO(NH—(2-methyl-benzyl))))-P1((1R,2S)/(1S,2R) VinylAcca)—CO2H]",> 10
6,C=CC1CC1(NC(=O)[C@@H]1C[C@@H](OC(=O)Nc2cc(C)ccc2F)CN1C(=O)[C@@H](NC(=O)OC(C)(C)C)C(C)(C)C)C(=O)O (stereo partly shown) [Compound 107],> 10
7,"C=CC1C[C@]1(NC(=O)[C@@H]1C[C@@H](OC(=O)Nc2c(C)cccc2C)CN1C(=O)[C@@H](NC(=O)OC(C)(C)C)C(C)(C)C)C(=O)NS(=O)(=O)C1CC1 (stereo partly drawn) [Compound 58, BocNH-P3(t-BuGly)-P2(Hyp(O—CO(NH—(2,6-dimethyl-phenyl))))-P1(1R,2S VinylAcca)—CONHSO2Cyclopropane]",1 to 10
8,"C=CC1CC1(NC(=O)[C@@H]1C[C@@H](OC(=O)Nc2ccccc2)CN1C(=O)[C@@H](NC(=O)OC(C)(C)C)C(C)(C)C)C(=O)O (stereo partly drawn) [Compound 106, BocNH-P3(t-BuGly)-P2(Hyp(O—CO(NH-phenyl)))-P1((1R,2S)/(1S,2R) VinylAcca)—CO2H]",> 10
9,"C=CC1CC1(NC(=O)[C@@H]1C[C@@H](OC(=O)NC(C)c2cccc3ccccc23)CN1C(=O)[C@@H](NC(=O)OC(C)(C)C)C(C)(C)C)C(=O)O (stereo partly drawn) [Compound 105, BocNH-P3(t-BuGly)-P2(Hyp(O—CO(NH-1-(R)-1-naphthylethyl)))-P1((1R,2S)/(1S,2R) VinylAcca)—CO2H]",> 10
10,"C=CC1C[C@]1(NC(=O)[C@@H]1C[C@@H](OC(=O)Nc2c(C)cccc2CC)CN1C(=O)[C@@H](NC(=O)OC(C)(C)C)C(C)(C)C)C(=O)NS(=O)(=O)C1CC1 (stereo partly drawn) [Compound 61, BocNH-P3(t-BuGly)-P2(Hyp(O—CO(NH—(2-ethyl-6-methyl))))-P1(1R,2S VinylAcca)—CONHSO2Cyclopropane]",1 to 10
11,"C=CC1C[C@]1(NC(=O)[C@@H]1C[C@@H](OC(=O)Nc2c(CC)cccc2C(C)C)CN1C(=O)[C@@H](NC(=O)OC(C)(C)C)C(C)(C)C)C(=O)NS(=O)(=O)C1CC1 (stereo partly drawn) [Compound 22, BocNH-P3(t-BuGly)-P2(Hyp(O—CO(NH—(2-ethyl-6-isopropyl-phenyl))))-P1(1R,2S VinylAcca)—CONHSO2Cyclopropane]",1 to 10
12,"C=CC1C[C@]1(NC(=O)[C@@H]1C[C@@H](OC(=O)Nc2c(C)nn(C)c2C)CN1C(=O)[C@@H](NC(=O)OC(C)(C)C)C(C)(C)C)C(=O)NS(=O)(=O)C1CC1 (stereo partly drawn) [Compound 68, BocNH-P3(t-BuGly)-P2(Hyp(O—CO(NH—(1,3,5-Trimethyl-pyrazol-4-yl))))-P1(1R,2S VinylAcca)—CONHSO2Cyclopropane]",1 to 10

# Same assay, conditions: read-out: IC50 range, HCV NS3/4A protease enzyme assay
row,SMILES,IC50 [µM]
1,"C=CC1C[C@]1(NC(=O)[C@@H]1C[C@@H](OC(=O)Nc2c(CC)cccc2CC)CN1C(=O)[C@@H](NC(=O)OC(C)(C)C)C(C)(C)C)C(=O)NS(=O)(=O)C1CC1 (stereo partly drawn) [Compound 62, BocNH-P3(t-BuGly)-P2(Hyp(O—CO(NH—(2,6-diethyl-phenyl))))-P1(1R,2S VinylAcca)—CONHSO2Cyclopropane]",1 to 10
